# Legend:
# [1] = system: HCT116, HuCC-T1, HT-29, SW480, B16 and DLD-1 tumors; assay: Low dose HTI-286 and L-NNA on various xenografts (FIG. 10); type: in vivo, mice; conditions: HTI-286 1 mg/kg without L-NNA; L-NNA 10 mg/kg without HTI-286
# Excerpt: FIG. 10A-10F Quantification of the effects of C. novyi-NT plus low doses of HTI-286 and L-NNA on various xenografts (HCT116, HuCC-T1, HT-29, SW480, B16, and DLD-1, respectively).
# […] […] The p-values are based on comparisons between L-NNA+HTI-286 and L-NNA+HTI-286+C. novyi-NT spores. The p-value is indicated only when the result was statistically significant.
# All animal protocols were designed in accordance with the Guide for the Care and Use of Laboratory Animals (NIH Publication 86-23) and were approved by the Johns Hopkins University Institutional Animal Care and Use Committee. Six to eight week old mice were implanted subcutaneously on one flank with 3 to 6 million cancer cells. Establishment of tumors of 150 to 500 mm3 took 8 to 21 days, depending on the cell type. C. novyi-NT spores (300×106) and anti-microtubule agents were generally administered by a single intravenous injection through the tail vein in a total volume of 300 to 500 ul phosphate-buffered saline (PBS). Quantitative assessment of tumor growth was performed by measuring subcutaneous tumor grafts (major and minor axis) using electronic calipers. Tumor volume was calculated using the equation: length×width2×0.5. Progression free survival was defined as the length of time following treatment before any increase in tumor volume was observed. Mice were considered “cured” if no tumor was evident three months after treatment. […]
# C. novyi-NT = assay: Quantification of C. novyi-NT in tumors by real-time PCR; type: in vivo, C. novyi-NT in mice bearing HCT116 xenografts; conditions: versus spores without drug; HCT116 xenografts; SD printed +/−0.08 (HTI-286), +/−0.3 (docetaxel)
# Experimental: Mice bearing HCT116 xenografts were treated with C. novyi-NT spores with or without HTI-286 (1.7 mg/kg) as described above. Following euthanasia 24-48 hr later, tumors were harvested, weighed, minced, and Dounce-homogenized. Genomic DNA was isolated using the Qiagen Genomic DNA Buffer Set and Genomic-tip 100/G. 25 ng of DNA was used in a PCR using the conditions described in (Vogelstein and Kinzler, 1999) The following primers specific for the C. novyi-NT phospholipase C gene were used: 5′-[…] (SEQ ID NO:1) and 5′-[…] (SEQ ID NO:2). No detectable primer dimers formed and no nonspecific amplification of mouse or xenograft genomic DNA occurred with these primers and PCR conditions. Real-time PCR was performed using an iCycler, and threshold cycle numbers were calculated using the iCycler Optical system interface software (Bio-Rad Lab, Hercules, Calif.). Averages of the threshold cycle number (Ct) of triplicate measurements per tumor were obtained, and three different tumors were studied for each treatment group. The results were expressed as the difference between the Ct of the treated tumor and the Ct of untreated controls, normalized to tumor weight.
# Second, we directly tested the size of bacterial populations within tumors by measuring the number of bacteria at various times following intravenous injection of C. novyi-NT spores into mice bearing HCT116 xenografts. […]
compound,measurement,setting,value
"CN[C@H](C(=O)N[C@H](C(=O)N(C)[C@H](/C=C(\C)C(=O)O)C(C)C)C(C)(C)C)C(C)(C)c1ccccc1 [HTI-286, N,β,β-trimethyl-L-phenylalanyl-N^1-[(1S,2E)-3-carboxy-1-isopropylbut-2-enyl]-N^1,3-dimethyl-L-valinamide]",effects on tumor growth when administered without the other agent,[1],no significant effects on tumor growth
same,increase in number of C. novyi-NT bacteria in tumor when co-injected with drug,C. novyi-NT,6.8 fold

# Source: patent publication US8007782B2, “Combination bacteriolytic therapy for the treatment of tumors” (priority 2003, dated 2011)
